Assay results published in patent US8034908B2, “Glycolipids and synthetic method thereof as well as their synthetic intermediates, and synthetic method thereof” (Japan as Represented by President of National Center of …, priority 2003, dated 2011).

Columns and labels:
Splenocytes = experiment: Test of production of cytokines by glycolipid derivative (in vitro), mouse splenocytes, ELISA; format: cell-based, C57BL/6 mice; details: for IFN-γ / IL-4: glycolipid 100 ng/ml, 72 hours culture, culture supernatant, ELISA
Procedure: Test of Production of Cytokines by Glycolipid Derivative (In Vitro)
Splenocytes were prepared from the spleens of C57BL/6 mice (6 to 8 weeks old, female) and suspended in a RPMI1640 medium (purchased by Nakarai) containing 10% fetal bovine serum (purchased by GIBCO), 5×10-^5M 2-mercaptoethanol (purchased by GIBCO), 1 mM pyruvate (purchased by SIGMA), and 25 mM HEPE (purchased by SIGMA). These were seeded on a 96-well flat bottom plate (purchased by IWAKI) in an amount of 5×10e5 cells/well and a glycolipid derivative was added to each at a final concentration of 100 ng/ml. The results were cultured at 37° C. in the presence of 5% CO2 for 72 hours, then the culture supernatent was collected. The concentration of the IL-4 and IFN-γ in the culture supernatent were measured by ELISA (BD Pharmingen EIA Kit) (Table 2).

[1] = test system: mouse experimental autoimmunological encephalomyelitis (EAE) model; details: oral administration; cited from earlier work
NKT cells = details: cited from earlier work

Row | SMILES | IFN-γ (Splenocytes) [pg/mL] | IL-4 (Splenocytes) [pg/mL] | Effect in EAE model (in words) [1] | Cytokines produced by NKT cells (in words) (NKT cells) | IFN-γ producing activity (in words) (Splenocytes; compared with α-GalCer, Table 2)
1 | CCCCCCCCCCCCCCCCCCCCCCC(=O)N[C@@H](COC1OC(CO)C(O)C(O)C1O)[C@H](O)[C@H](O)CCCC (stereo partly drawn) [Compound 110, 2-tricosanoylamino-1-O-α-D-galactopyranosyl-D-ribo-1,3,4-octanetriol] | 10614 | 226 |  |  | 
2 | CCCCCCCCCCCCCCCCCCCCCC(=O)N[C@@H](COC1OC(CO)C(O)C(O)C1O)[C@H](O)[C@H](O)CCC (stereo partly drawn) [Compound 111, 2-docasanoylamino-1-O-α-D-galactopyranosyl-D-ribo-1,3,4-heptanetriol] | 7413 | 256 |  |  | 
3 | CCCCCCCCCCCCCCCCCCCCCCC(=O)N[C@@H](COC1OC(CO)C(O)C(O)C1O)[C@H](O)[C@H](O)CC (stereo partly drawn) [Compound 112, 2-tricosanoylamino-1-O-α-D-galactopyranosyl-D-ribo-1,3,4-hexanetriol] | 5832 | 237 |  |  | 
4 | CCCCCCCCCCCCCCCCCCCCCC(=O)N[C@@H](COC1OC(CO)C(O)C(O)C1O)[C@H](O)[C@H](O)CCCCCC (stereo partly drawn) [Compound 113, 2-docasanoylamino-1-O-α-D-galactopyranosyl-D-ribo-1,3,4-decanetriol] | 7967 | 251 |  |  | 
5 | CCCCCCCCCCCCCCCCCCCCCCC(=O)N[C@@H](CO[C@H]1O[C@H](CO)[C@H](O)[C@H](O)[C@H]1O)[C@H](O)[C@H](O)CCCCCC [Compound 114, 2-tricosanoylamino-1-O-α-D-galactopyranosyl-D-ribo-1,3,4-decanetriol] | 8067 | 225 |  |  | 
6 | CCCCCCCCCCCCCCCCCCCCCCCC(=O)N[C@@H](COC1OC(CO)C(O)C(O)C1O)[C@H](O)[C@H](O)CCc1ccccc1 (stereo partly drawn) [Compound 115, 6-phenyl-2-tetracosanoylamino-1-O-α-D-galactopyranosyl-D-ribo-1,3,4-hexanetriol] | 2481 | 137 |  |  | 
7 | CCCCCCCCCCCCCCCCCCCCCCCC(=O)N[C@@H](COC1OC(CO)C(O)C(O)C1O)[C@H](O)[C@H](O)CC1CCCC1 (stereo partly drawn) [Compound 116, 5-cyclopentyl-2-tetracosanoylamino-1-O-α-D-galactopyranosyl-D-ribo-1,3,4-pentanetriol] | 5268 | 226 |  |  | 
8 | CCCCCCCCCCCCCCCCCCCCCCCC(=O)N[C@@H](COC1OC(CO)C(O)C(O)C1O)[C@H](O)[C@H](O)Cc1ccc(C)cc1 (stereo partly drawn) [Compound 117, 5-(4-methylphenyl)-2-tetracosanoylamino-1-O-α-D-galactopyranosyl-D-ribo-1,3,4-pentanetriol] | 5485 | 181 |  |  | 
9 | CCCCCCCCCCCCCCOc1ccc(CCCCC(=O)N[C@@H](COC2OC(CO)C(O)C(O)C2O)[C@H](O)[C@H](O)CCCCC)cc1 (some centres unmarked) [Compound 127] | 2506 | 159 |  |  | 
10 | CCCCCCCCCCCCCCCCCCCCCCCC(=O)N[C@@H](CO[C@H]1O[C@H](CO)[C@H](O)[C@H](O)[C@H]1O)[C@H](O)[C@H](O)CCCCC.O [Compound 129, 2-tetracosanoylamino-1-O-α-D-galactopyranosyl-D-ribo-1,3,4-nonanetriol 1-hydrate] | 7179 | 232 |  |  | 
11 | CCCCCCCCCCCCCCCCCCCCCCCC(=O)N[C@@H](COC1OC(CO)C(O)C(O)C1O)[C@H](O)[C@H](O)CCCCC (some centres unmarked) [OCH] |  |  | effected in oral administration | more selectively promotes the production of IL-4 | 
12 | CCCCCCCCCCCCCCCCCCCCCCCCCC(=O)N[C@@H](CO[C@H]1O[C@H](CO)[C@H](O)[C@H](O)[C@H]1O)[C@H](O)[C@H](O)CCCCCCCCCCCCCC [α-Galcer, (2S,3S,4R)-1-O-(α-D-galactosyl)-2-(N-hexacosanoylamino)-1,3,4-octadecanetriol, reference compound] | 21900 | 201 |  | causes NKT cells to produce IFN-γ and IL-4 | IFN-γ was produced remarkably dominantly
